ChEMBL document CHEMBL1144334, “Synthesis and structure-activity relationships of isoxazole carboxamides as growth hormone secretagogue receptor antagonists” (Bioorg Med Chem Lett, 2005)
pIC50: −log10 of the molar value.

What was measured:
[1] = molecular target: T1, Growth hormone secretagogue receptor type 1 (Homo sapiens, UniProt Q92847); assay: Inhibition of ghrelin-induced increase of intracellular [Ca2+] in CHO K cell FLIPR assay; assay type: functional, cell-based
[2] = molecular target: T1, Growth hormone secretagogue receptor type 1; assay: Inhibition of binding to human growth hormone secretagogue receptor
Rattus norvegicus [3] = assay: Oral bioavailability in rat; assay type: functional, organism-based
Rattus norvegicus [4] = species: Rattus norvegicus; assay: Rate of metabolism measured in rat liver microsomes for 30 min

T1 sequence (Q92847 whole entry): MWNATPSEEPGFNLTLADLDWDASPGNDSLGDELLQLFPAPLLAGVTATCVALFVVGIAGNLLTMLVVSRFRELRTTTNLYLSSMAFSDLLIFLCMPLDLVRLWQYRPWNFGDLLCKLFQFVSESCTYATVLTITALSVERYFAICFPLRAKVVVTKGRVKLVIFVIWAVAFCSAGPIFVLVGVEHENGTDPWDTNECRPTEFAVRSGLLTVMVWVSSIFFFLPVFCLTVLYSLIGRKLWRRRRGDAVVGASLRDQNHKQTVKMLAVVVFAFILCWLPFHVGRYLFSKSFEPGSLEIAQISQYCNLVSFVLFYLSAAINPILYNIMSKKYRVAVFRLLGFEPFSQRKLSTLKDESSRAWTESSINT

With `Cc1onc(-c2c(Cl)cccc2Cl)c1C(=O)Nc1ccccc1C(=O)NCc1ccc2c(c1)OCO2` as the compound, how does the pIC50 [1] read?
Its pIC50 is 5.31.

And the pIC50 [2]?
Its pIC50 is 6.46.

With `CCN(CC)c1ccc(NC(=O)c2c(-c3c(Cl)cccc3Cl)noc2C)c(C(F)(F)F)c1` as the compound, how does the pIC50 [1] read?
Its pIC50 is < 5.00.

What about the pIC50 [2] of the same compound?
The pIC50 was 5.39.

Which results are given for `CCN(CC)c1ccc(NC(=O)c2c(-c3ccccc3)noc2C)cc1`?
pIC50 [1]: 5.12; pIC50 [2]: 5.09

How did the pIC50 [1] turn out when `CCN(CC)c1ccc(NC(=O)c2c(-c3ccc(Cl)cc3)noc2C)cc1` was run?
The pIC50 was 5.22.

What about the pIC50 [2] of the same compound?
The pIC50 was 5.15.

What does the source list for `O=C(Nc1ccccc1C(=O)N1CCCCC1)c1c(-c2c(Cl)cccc2Cl)noc1CCC1OCCCO1`?
pIC50 [1]: 5.13; pIC50 [2]: 5.12

With `CCN(CC)c1ccc(NC(=O)c2c(-c3c(Cl)cccc3Cl)noc2C)cc1C` as the compound, how does the pIC50 [1] read?
Its pIC50 is < 5.00.

What about the pIC50 [2] of the same compound?
The pIC50 was < 7.00.

What does the source list for `CCN(CC)c1ccc(NC(=O)c2c(-c3c(Cl)cccc3Cl)noc2C)cc1`?
bioavailability (Rattus norvegicus [3]): 4%; Rate of metabolism (Rattus norvegicus [4]): 800 pM/mg/min

With `CCN(CC)c1ccc(NC(=O)c2c(-c3ccccc3[N+](=O)[O-])noc2C)cc1` as the compound, how does the pIC50 [1] read?
The pIC50 was 6.21.

What about the pIC50 [2] of the same compound?
The pIC50 was 6.26.

With `CCN(CC)c1ccc(NC(=O)c2c(-c3c(Cl)cccc3Cl)noc2CCC2OCCCO2)cc1` as the compound, how does the pIC50 [1] read?
Its pIC50 is 7.85.

How did the pIC50 [2] turn out when `CCN(C(C)=O)c1ccc(NC(=O)c2c(-c3c(Cl)cccc3Cl)noc2C)cc1` was run?
Its pIC50 is < 5.00.

How did the pIC50 [1] turn out when `CCN(CC)c1ccc(NC(=O)c2c(-c3c(Cl)cccc3Cl)noc2C)c(OC)c1` was run?
Its pIC50 is 5.54.

What about the pIC50 [2] of the same compound?
Its pIC50 is 6.22.

With `CCN(CCO)c1ccc(NC(=O)c2c(-c3c(Cl)cccc3Cl)noc2C)cc1` as the compound, how does the pIC50 [1] read?
The pIC50 was 5.51.

What about the pIC50 [2] of the same compound?
The pIC50 was 5.04.

With `CCN(C)c1ccc(NC(=O)c2c(-c3c(Cl)cccc3Cl)noc2C)cc1` as the compound, how does the pIC50 [1] read?
Its pIC50 is 5.33.

What about the pIC50 [2] of the same compound?
Its pIC50 is 5.26.

How did the pIC50 [2] turn out when `CCN(CC)c1ccc(NC(=O)c2c(-c3c(Cl)cccc3Cl)noc2C)cc1Cl` was run?
The pIC50 was < 5.00.

`Cc1onc(-c2c(Cl)cccc2Cl)c1C(=O)Nc1ccc(N2CCCCC2)cc1` was tested. Which pIC50 [2] did it give?
Its pIC50 is < 5.00.

Which results are given for `Cc1onc(-c2c(Cl)cccc2Cl)c1C(=O)Nc1ccccc1C(=O)N1CCCCCC1`?
pIC50 [1]: 6.29; pIC50 [2]: 6.07

What does the source list for `Cc1onc(-c2c(Cl)cccc2Cl)c1C(=O)Nc1ccccc1C(=O)N1CCCCC1`?
pIC50 [1]: 5.64; pIC50 [2]: 5.66

What does the source list for `Cc1onc(-c2c(Cl)cccc2Cl)c1C(=O)Nc1ccccc1C(=O)NCc1ccccc1`?
pIC50 [1]: 4.98; pIC50 [2]: 5.92

With `CCN(CC)c1ccc(NC(=O)c2c(-c3c(Cl)cccc3Cl)noc2CCC2OCCCO2)c(C)c1` as the compound, how does the pIC50 [1] read?
The pIC50 was 8.00.

And the pIC50 [2]?
Its pIC50 is 8.05.

Which results are given for `CCN(CC)c1ccc(NC(=O)c2c(-c3ccccc3Br)noc2C)cc1`?
pIC50 [1]: 6.55; pIC50 [2]: 6.47

With `CCN(CC)C(=O)c1ccccc1NC(=O)c1c(-c2c(Cl)cccc2Cl)noc1C` as the compound, how does the pIC50 [1] read?
The pIC50 was 5.60.

And the pIC50 [2]?
The pIC50 was 5.72.

`CCN(CC)c1ccc(NC(=O)c2c(-c3c(Cl)cccc3Cl)noc2C)c(C#N)c1` was tested. Which pIC50 [1] did it give?
Its pIC50 is 5.35.

And the pIC50 [2]?
Its pIC50 is 5.05.

What does the source list for `CCN(CC)c1ccc(NC(=O)c2c(-c3ccccc3Cl)noc2C)cc1`?
pIC50 [1]: 6.60; pIC50 [2]: 6.16

Which results are given for `CCc1cc(N(CC)CC)ccc1NC(=O)c1c(-c2c(Cl)cccc2Cl)noc1C`?
pIC50 [1]: 7.39; pIC50 [2]: 6.43

What does the source list for `CCN(CC)c1ccc(NC(=O)c2c(-c3ccccc3OC)noc2C)cc1`?
pIC50 [1]: 5.17; pIC50 [2]: 5.40

What does the source list for `CCN(CC)c1ccc(NC(=O)c2c(-c3c(Cl)cccc3Cl)noc2C)c(C)c1`?
bioavailability (Rattus norvegicus [3]): 1%; pIC50 [1]: 7.41; pIC50 [2]: 7.43

`CCNc1ccc(NC(=O)c2c(-c3c(Cl)cccc3Cl)noc2C)cc1` was tested. Which pIC50 [2] did it give?
The pIC50 was < 5.00.

How did the pIC50 [1] turn out when `CCN(CC)c1ccc(NC(=O)c2c(-c3ccccc3-c3ccccc3)noc2C)cc1` was run?
The pIC50 was 5.20.

What about the pIC50 [2] of the same compound?
The pIC50 was 5.89.

How did the pIC50 [2] turn out when `CCC(CC)c1ccc(NC(=O)c2c(-c3c(Cl)cccc3Cl)noc2C)cc1` was run?
The pIC50 was < 5.00.

How did the pIC50 [2] turn out when `CCN(CC)c1ccc(NC(=O)c2c(-c3cccc(Cl)c3)noc2C)cc1` was run?
The pIC50 was 4.73.

With `CCN(CC)Cc1ccc(NC(=O)c2c(-c3c(Cl)cccc3Cl)noc2C)cc1` as the compound, how does the pIC50 [2] read?
The pIC50 was < 5.00.

With `CCCN(CC)c1ccc(NC(=O)c2c(-c3c(Cl)cccc3Cl)noc2C)cc1` as the compound, how does the pIC50 [1] read?
Its pIC50 is 6.29.

What about the pIC50 [2] of the same compound?
Its pIC50 is 6.39.

`Cc1onc(-c2c(Cl)cccc2Cl)c1C(=O)Nc1ccccc1CC1c2ccccc2CCN1C` (centres undefined) was tested. Which pIC50 [1] did it give?
The pIC50 was 5.77.

And the pIC50 [2]?
The pIC50 was 6.01.
